The target of this experiment is T1, human TLR9 (Homo sapiens, UniProt Q9NR96).
T1 sequence (Q9NR96 26-1032): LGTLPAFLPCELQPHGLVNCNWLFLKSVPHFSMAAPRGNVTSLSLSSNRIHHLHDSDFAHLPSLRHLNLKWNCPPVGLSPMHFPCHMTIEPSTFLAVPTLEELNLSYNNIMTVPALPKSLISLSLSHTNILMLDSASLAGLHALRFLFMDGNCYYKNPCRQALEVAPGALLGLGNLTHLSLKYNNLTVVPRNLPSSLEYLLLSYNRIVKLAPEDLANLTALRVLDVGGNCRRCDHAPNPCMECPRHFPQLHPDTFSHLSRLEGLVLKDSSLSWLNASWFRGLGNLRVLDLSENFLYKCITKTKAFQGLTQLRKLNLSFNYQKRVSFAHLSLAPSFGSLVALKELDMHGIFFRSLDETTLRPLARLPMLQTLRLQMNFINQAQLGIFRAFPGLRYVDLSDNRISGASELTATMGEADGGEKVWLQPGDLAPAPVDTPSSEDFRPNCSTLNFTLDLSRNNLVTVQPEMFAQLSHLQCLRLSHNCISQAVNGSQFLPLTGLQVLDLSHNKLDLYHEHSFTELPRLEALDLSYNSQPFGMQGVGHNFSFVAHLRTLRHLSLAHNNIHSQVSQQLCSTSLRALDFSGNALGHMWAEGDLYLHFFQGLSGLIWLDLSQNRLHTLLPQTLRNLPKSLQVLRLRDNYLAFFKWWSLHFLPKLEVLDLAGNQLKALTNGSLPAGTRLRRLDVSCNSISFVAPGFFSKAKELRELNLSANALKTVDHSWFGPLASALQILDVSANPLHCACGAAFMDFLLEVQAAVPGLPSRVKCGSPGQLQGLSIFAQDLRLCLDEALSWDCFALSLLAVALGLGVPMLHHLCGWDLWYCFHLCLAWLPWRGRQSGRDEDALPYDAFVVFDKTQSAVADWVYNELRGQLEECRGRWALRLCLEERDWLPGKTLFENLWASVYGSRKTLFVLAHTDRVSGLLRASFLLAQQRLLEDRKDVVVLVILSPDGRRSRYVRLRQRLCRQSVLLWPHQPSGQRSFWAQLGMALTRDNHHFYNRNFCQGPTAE
As to the kind of experiment: HEK293-Blue-hTLR-9 cells assay. The experiment is classed as cell-based. As to conditions: HEK293-Blue-hTLR9 cells, ODN2006 stimulation, 20 hrs, SEAP reporter; read-out: HEK/hTLR9 IC50. A digest of the protocol: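 Antagonist mode in HEK293-Blue hTLR9 reporter cells (SEAP under NF-κB/AP-1 sites), stimulated with ODN2006 added from a 20 uM solution. Serially diluted compound (1% DMSO final) was incubated 20 hrs at 37° C. Supernatant SEAP was developed with QUANTI-Blue for 2 h at 37° C and read at 620˜655 nm.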
Consider `C[C@@H]1CN(c2ccc(C#N)c3ncccc23)C[C@@H]2c3ccc(N4CC5(CNCCO5)C4)cc3CN12` [Example 35, 5-[(4R,10bS)-4-methyl-8-(5-oxa-2,8-diazaspiro[3.5]nonan-2-yl)-3,4,6,10b-tetrahydro-1H-pyrazino[2,1-a]isoindol-2-yl]quinoline-8-carbonitrile], for which the IC50 is 111 nM.

`C[C@@H]1CN(c2ccc(C#N)c3ncccc23)C[C@@H]2c3ccc(N4CCNC[C@](C)(O)C4)cc3CN12` [Example 55A, 5-[(4R,10bS)-8-[(6S)-6-hydroxy-6-methyl-1,4-diazepan-1-yl]-4-methyl-3,4,6,10b-tetrahydro-1H-pyrazino[2,1-a]isoindol-2-yl]quinoline-8-carbonitrile]: the IC50 is 111 nM.

Take `C[C@@H]1CN(c2ccc(C#N)n3nccc23)C[C@@H]2c3ccc(N4C[C@H](N)[C@@](C)(O)C4)cc3CN12` [Example 109, 4-[(4R,10bS)-8-[(3S,4S)-4-amino-3-hydroxy-3-methyl-pyrrolidin-1-yl]-4-methyl-3,4,6,10b-tetrahydro-1H-pyrazino[2,1-a]isoindol-2-yl]pyrazolo[1,5-a]pyridine-7-carbonitrile]: the IC50 amounted to 160 nM.

`C[C@@H]1CN(c2ccc(C#N)n3ncc(F)c23)C[C@@H]2c3ccc(N4C[C@H](N)[C@@](C)(O)C4)cc3CN12` [Example 112, 4-[(4R,10bS)-8-[(3S,4S)-4-amino-3-hydroxy-3-methyl-pyrrolidin-1-yl]-4-methyl-3,4,6,10b-tetrahydro-1H-pyrazino[2,1-a]isoindol-2-yl]-3-fluoro-pyrazolo[1,5-a]pyridine-7-carbonitrile]: the IC50 worked out at 227 nM.

With `C[C@@H]1CN(c2ccc(C#N)c3ncccc23)C[C@@H]2c3ccc(NCCN(C)C)cc3CN12` [Example 26, 5-[(4R,10bS)-8-[2-(dimethylamino)ethylamino]-4-methyl-3,4,6,10b-tetrahydro-1H-pyrazino[2,1-a]isoindol-2-yl]quinoline-8-carbonitrile], the IC50 worked out at 55.8 nM.

As to `C[C@@H]1CN(c2ccc(C#N)c3ncccc23)C[C@@H]2c3ccc(N4CCOC[C@@H](N)C4)cc3CN12` [Example 54B, 5-[(4R,10bS)-8-[(6S)-6-amino-1,4-oxazepan-4-yl]-4-methyl-3,4,6,10b-tetrahydro-1H-pyrazino[2,1-a]isoindol-2-yl]quinoline-8-carbonitrile], the IC50 was found to be 87.3 nM.

With `CO[C@@H]1CNC[C@H]1Nc1ccc2c(c1)CN1[C@H](C)CN(c3ccc(C#N)c4ncccc34)C[C@H]21` [Example 34, 5-[(4R,10bS)-8-[[(3R,4R)-4-methoxypyrrolidin-3-yl]amino]-4-methyl-3,4,6,10b-tetrahydro-1H-pyrazino[2,1-a]isoindol-2-yl]quinoline-8-carbonitrile], the IC50 stood at 66.6 nM.

In the case of `C[C@@H]1CN(c2ccc(C#N)c3ncccc23)C[C@@H]2c3ccc(N4CC5(CCN5)C4)cc3CN12` [Example 37, 5-[(4R,10bS)-8-(1,6-diazaspiro[3.3]heptan-6-yl)-4-methyl-3,4,6,10b-tetrahydro-1H-pyrazino[2,1-a]isoindol-2-yl]quinoline-8-carbonitrile], the IC50 was determined as 103 nM.

Turning to `CO[C@H]1CN(c2ccc3c(c2)CN2[C@H](C)CN(c4ccc(C#N)c5ncccc45)C[C@H]32)C[C@@H]1N` (relative stereo) [Example 16, 5-[(4R,10bS)-8-[trans-3-amino-4-methoxy-pyrrolidin-1-yl]-4-methyl-3,4,6,10b-tetrahydro-1H-pyrazino[2,1-a]isoindol-2-yl]quinoline-8-carbonitrile], the IC50 stood at 95.2 nM.

`CO[C@@H]1CN(c2ccc3c(c2)CN2[C@H](C)CN(c4ccc(C#N)n5nccc45)C[C@H]32)CC[C@@H]1N` [Example 105, 4-[(4R,10bS)-8-[(3R,4S)-4-amino-3-methoxy-1-piperidyl]-4-methyl-3,4,6,10b-tetrahydro-1H-pyrazino[2,1-a]isoindol-2-yl]pyrazolo[1,5-a]pyridine-7-carbonitrile]: the IC50 was 163 nM.

With `COC12CNCC1CN(c1ccc3c(c1)CN1[C@H](C)CN(c4ccc(C#N)c5ncccc45)C[C@H]31)C2` (stereo partly drawn) [Example 41, 5-[(4R,10bS)-8-(3a-methoxy-1,2,3,4,6,6a-hexahydropyrrolo[3,4-c]pyrrol-5-yl)-4-methyl-3,4,6,10b-tetrahydro-1H-pyrazino[2,1-a]isoindol-2-yl]quinoline-8-carbonitrile], the IC50 was below 31.8 nM.

With `C[C@@H]1CN(c2ccc(C#N)c3ncccc23)C[C@@H]2c3ccc(N4C[C@H](N)[C@@H](F)C4)cc3CN12` [Example 49, 5-[(4R,10bS)-8-[(3S,4S)-3-amino-4-fluoro-pyrrolidin-1-yl]-4-methyl-3,4,6,10b-tetrahydro-1H-pyrazino[2,1-a]isoindol-2-yl]quinoline-8-carbonitrile], the IC50 is 186 nM.

The values are drawn from patent publication US12157746B2, “Tetrahydro-1H-pyrazino[2,1-a]isoindolylquinoline compounds for the treatment of autoimmune disease” (F. HOFFMANN-LA ROCHE AG, priority 2018, dated 2024).
